Reference: patent publication US20250092064A1, “BENZOTRIAZOLE COMPOUND” (DAIICHI SANKYO COMPANY, LIMITED, priority 2022, published 2025)

Experiments:
[1] = biological target: binding between Nrf2 and Keap1 (Homo sapiens (Human), UniProt Q14145); assay: FP assay (in vitro): inhibition of Nrf2-Keap1 binding by fluorescence polarization; settings: GST-fused human Keap1 (325-642) 20 nM, FITC-labeled Nrf2 peptide 10 nM, 2 hr at room temperature
[2] = tested on: NQO1 activity in Hepa1c1c7 cells; assay: NAD(P)H: quinone oxidoreductase-1 (NQO1) enzyme induction assay (in vitro); type: cell-based, mouse; settings: about 48 hr; for fold induction at 0.4 µM: Mus musculus, Hepa-1c1c7, NQO1 activity with 400 nM test compound as a ratio from the base without compound
Protocol: The NQO1 assay was performed based on a previous report (Methods in Enzymology 2004; 382: 243-258). Hepa1c1c7 cells (mouse hepatocyte cell line, ATCC, cat. no. CRL-2026) were cultured in D-MEM medium containing 10% FBS and 1% penicillin/streptomycin (5% CO2, 37° C.), and seeded into 96-well plates (Corning REF. 353072) at 1×10^4 cells/well. A portion of the wells were prepared with medium only for background measurement without seeding cells. The next day, 400 nM of the test compound (0.004% of the final concentration in DMSO) dissolved in DMSO was added thereto, and the wells were incubated for about 48 hr. A well without adding the test compound was prepared for base activity assay in part. […] After the medium was removed, 50 μL of the cell lysate was added and incubated at 37° C. for 10 minutes, followed by shaking at room temperature for 10 minutes. 200 μL of reaction solution was added thereto, and allowed to stand for 5 minutes at room temperature. 50 μL of the stop solution was added thereto, and absorbance was measured at 610 nm on a SpectraMax PLUS384 (Molecular devices) or […] Pharma Biomedical). The test results were analyzed in Excel, and the NQO1 activity upon addition of 400 nM of test compound was calculated as a ratio from the base without the compound. NQO1 activity ratio when test compound is added=(absorbance when test compound is added-absorbance of medium only)/(absorbance without addition of compound-absorbance of medium only) [numerical formula 2] The results of each test compound in this test are shown in the following Table 2 (A:5<NQO1 activity ratio, B:3<NQO1 activity ratio≤5).

Chain of binding between Nrf2 and Keap1 (Q14145 325-624 limits assumed): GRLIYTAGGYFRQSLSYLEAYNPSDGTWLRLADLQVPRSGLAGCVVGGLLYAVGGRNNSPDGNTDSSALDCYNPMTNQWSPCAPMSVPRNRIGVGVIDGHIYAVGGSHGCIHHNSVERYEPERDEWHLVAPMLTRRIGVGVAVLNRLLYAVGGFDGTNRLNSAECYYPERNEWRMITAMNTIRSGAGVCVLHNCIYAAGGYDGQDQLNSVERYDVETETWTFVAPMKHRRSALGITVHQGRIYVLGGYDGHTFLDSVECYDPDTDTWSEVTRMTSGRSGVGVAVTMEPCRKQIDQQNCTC

Row | IC50 [1] [nM] | SMILES | fold induction at 0.4 µM [2] | activity ratio ([2]; NQO1 activity with 400 nM test compound as a ratio from the base without compound)
1 | 30 to 100 | CC[C@@H]1CN(Cc2cc([C@@H](CC(=O)O)c3cc(Cl)c4c(nnn4C)c3C)cc3ccsc23)[C@@H](C)c2ncccc2O1 [Example 70, (3R)-3-(7-Chloro-1,4-dimethyl-1H-benzotriazol-5-yl)-3-(7-{[(2R,5S)-2-ethyl-5-methyl-2,3-dihydropyrido[2,3-f][1,4]oxazepin-4(5H)-yl]methyl}-1-benzothiophen-5-yl)propanoic acid] | 3 to 5 | –
2 | 10 to 30 | CC[C@@H]1CN(Cc2cc([C@@H](CC(=O)O)c3ccc4c(nnn4C)c3C)cc3ccsc23)C(C)c2nc(O)ccc2O1 (single isomer, unassigned) [Example 78, (3R)-3-(1,4-Dimethyl-1H-benzotriazol-5-yl)-3-(7-{[(2R,5S*)-2-ethyl-7-hydroxy-5-methyl-2,3-dihydropyrido[2,3-f][1,4]oxazepin-4(5H)-yl]methyl}-1-benzothiophen-5-yl)propanoic acid] | > 5 | –
3 | 10 to 30 | CC[C@@H]1CN(Cc2cc(C(CC(=O)O)c3cnc4c(nnn4C)c3C)cc3ccsc23)S(=O)(=O)c2cc(Cl)cnc2O1 (stereo partly drawn) [Example 59, 3-(7-{[(4R)-8-Chloro-4-ethyl-1,1-dioxido-3,4-dihydro-2H-pyrido[2,3-b][1,4,5]oxathiazepin-2-yl]methyl}-1-benzothiophen-5-yl)-3-(3,7-dimethyl-3H-[1,2,3]triazolo[4,5-b]pyridin-6-yl)propanoic acid] | > 5 | –
4 | 30 to 100 | CCOc1cc2c(cc1Cl)S(=O)(=O)N(Cc1cc(C(CC(=O)O)c3ccc4c(nnn4C)c3C)cc3c1CCC3)C[C@@H](CC)O2 (stereo partly drawn) [Example 18, 3-(7-{[(4R)-8-Chloro-7-ethoxy-4-ethyl-1,1-dioxido-3,4-dihydro-2H-5,1,2-benzoxathiazepin-2-yl]methyl}-2,3-dihydro-1H-inden-5-yl)-3-(1,4-dimethyl-1H-benzotriazol-5-yl)propanoic acid] | 3 to 5 | –
5 | 10 to 30 | CC[C@@H]1CN(Cc2cc(C(CC(=O)O)c3cc(C4CC4)c4c(nnn4C)c3C)cc3[nH]ccc23)[C@@H](C)c2ncccc2O1 (stereo partly drawn) [Example 104, 3-(7-Cyclopropyl-1,4-dimethyl-1H-benzotriazol-5-yl)-3-(4-{[(2R,5S)-2-ethyl-5-methyl-2,3-dihydropyrido[2,3-f][1,4]oxazepin-4(5H)-yl]methyl}-1H-indol-6-yl)propanoic acid] | > 5 | –
6 | ≤ 10 | CC[C@@H]1CN(Cc2cc(C(CC(=O)O)c3cc(C4CC4)c4c(nnn4C)c3C)cc3c2OCC3)S(=O)(=O)c2cc(Cl)cnc2O1 (stereo partly drawn) [Example 102, 3-(7-{[(4R)-8-Chloro-4-ethyl-1,1-dioxido-3,4-dihydro-2H-pyrido[2,3-b][1,4,5]oxathiazepin-2-yl]methyl}-2,3-dihydro-1-benzofuran-5-yl)-3-(7-cyclopropyl-1,4-dimethyl-1H-benzotriazol-5-yl)propanoic acid] | > 5 | –
7 | 30 to 100 | CC[C@@H]1CN(Cc2cc([C@H](CC(=O)O)c3cc(OC(F)F)c4c(nnn4C)c3C)cc3ccsc23)S(=O)(=O)c2cc(Cl)cnc2O1 [Example 108, (3S)-3-(7-{[(4R)-8-Chloro-4-ethyl-1,1-dioxido-3,4-dihydro-2H-pyrido[2,3-b][1,4,5]oxathiazepin-2-yl]methyl}-1-benzothiophen-5-yl)-3-[7-(difluoromethoxy)-1,4-dimethyl-1H-benzotriazol-5-yl]propanoic acid] | > 5 | –
8 | 10 to 30 | Cc1c(C(CC(=O)O)c2cc(CN3C[C@@H](C)Oc4ccccc4S3(=O)=O)c3cc[nH]c3c2)ccc2c1nnn2C (stereo partly drawn) [Example 90, 3-(1,4-Dimethyl-1H-benzotriazol-5-yl)-3-(4-{[(4R)-4-methyl-1,1-dioxido-3,4-dihydro-2H-5,1,2-benzoxathiazepin-2-yl]methyl}-1H-indol-6-yl)propanoic acid] | > 5 | –
9 | ≤ 10 | CCOc1ccc2c(n1)O[C@H](CC)CN(Cc1cc([C@@H](CC(=O)O)c3ccc4c(nnn4C)c3C)cc3ccsc13)S2(=O)=O [Example 112, (3R)-3-(1,4-Dimethyl-1H-benzotriazol-5-yl)-3-(7-{[(4R)-7-ethoxy-4-ethyl-1,1-dioxido-3,4-dihydro-2H-pyrido[2,3-b][1,4,5]oxathiazepin-2-yl]methyl}-1-benzothiophen-5-yl)propanoic acid] | 3 to 5 | –
10 | 10 to 30 | CC[C@@H]1CN(Cc2cc(C(CC(=O)O)c3cc(OC(F)F)c4c(nnn4C)c3C)cc3ccsc23)S(=O)(=O)c2cc(Cl)cnc2O1 (stereo partly drawn) [Example 55, 3-(7-{[(4R)-8-Chloro-4-ethyl-1,1-dioxido-3,4-dihydro-2H-pyrido[2,3-b][1,4,5]oxathiazepin-2-yl]methyl}-1-benzothiophen-5-yl)-3-[7-(difluoromethoxy)-1,4-dimethyl-1H-benzotriazol-5-yl]propanoic acid] | > 5 | –
11 | ≤ 10 | CC[C@@H]1CN(Cc2cc([C@H](CC(=O)O)c3cc(OC(F)F)c4c(nnn4C)c3C)cc3c2CCC3)S(=O)(=O)c2cc(Cl)cnc2O1 [Example 99, (3S)-3-(7-{[(4R)-8-Chloro-4-ethyl-1,1-dioxido-3,4-dihydro-2H-pyrido[2,3-b][1,4,5]oxathiazepin-2-yl]methyl}-2,3-dihydro-1H-inden-5-yl)-3-[7-(difluoromethoxy)-1,4-dimethyl-1H-benzotriazol-5-yl]propanoic acid] | > 5 | –
12 | 10 to 30 | CC[C@@H]1CN(Cc2cc([C@H](CC(=O)O)c3cc(OC(F)(F)F)c4c(nnn4C)c3C)cc3ccsc23)S(=O)(=O)c2cc(Cl)cnc2O1 [Example 46, (3S)-3-(7-{[(4R)-8-Chloro-4-ethyl-1,1-dioxido-3,4-dihydro-2H-pyrido[2,3-b][1,4,5]oxathiazepin-2-yl]methyl}-1-benzothiophen-5-yl)-3-[1,4-dimethyl-7-(trifluoromethoxy)-1H-benzotriazol-5-yl]propanoic acid] | 3 to 5 | –
13 | 30 to 100 | Cc1c([C@H](CC(=O)O)c2cc(CN3C[C@@H](C4CC4)Oc4ccc(O)nc4C3C)c3sccc3c2)cnc2c1nnn2C (single isomer, unassigned) [Example 86, (3R)-3-(7-{[(2R,5S*)-2-Cyclopropyl-7-hydroxy-5-methyl-2,3-dihydropyrido[2,3-f][1,4]oxazepin-4(5H)-yl]methyl}-1-benzothiophen-5-yl)-3-(3,7-dimethyl-3H-[1,2,3]triazolo[4,5-b]pyridin-6-yl)propanoic acid] | – | A (5<NQO1 activity ratio)
14 | ≤ 10 | CC[C@@H]1Cc2ccccc2S(=O)(=O)N(Cc2cc([C@@H](CC(=O)O)c3ccc4c(nnn4C)c3C)cc3c2CCC3)C1 (single isomer, unassigned) [Example 28, (3R)-3-(1,4-Dimethyl-1H-benzotriazol-5-yl)-3-(7-{[(4S*)-4-ethyl-1,1-dioxido-4,5-dihydro-1,2-benzothiazepin-2(3H)-yl]methyl}-2,3-dihydro-1H-inden-5-yl)propanoic acid] | > 5 | –
15 | ≤ 10 | CC[C@@H]1CN(Cc2cc([C@H](CC(=O)O)c3cc(OC(F)(F)F)c4c(nnn4C)c3C)cc3c2CCC3)S(=O)(=O)c2cc(Cl)cnc2O1 [Example 100, (3S)-3-(7-{[(4R)-8-Chloro-4-ethyl-1,1-dioxido-3,4-dihydro-2H-pyrido[2,3-b][1,4,5]oxathiazepin-2-yl]methyl}-2,3-dihydro-1H-inden-5-yl)-3-[1,4-dimethyl-7-(trifluoromethoxy)-1H-benzotriazol-5-yl]propanoic acid] | > 5 | –
16 | ≤ 10 | CC[C@@H]1CN(Cc2cc([C@@H](CC(=O)O)c3ccc4c(nnn4C)c3C)cc3c2CCC3)S(=O)(=O)c2cc(C)cnc2O1 [Example 47, (3R)-3-(1,4-Dimethyl-1H-benzotriazol-5-yl)-3-(7-{[(4R)-4-ethyl-8-methyl-1,1-dioxido-3,4-dihydro-2H-pyrido[2,3-b][1,4,5]oxathiazepin-2-yl]methyl}-2,3-dihydro-1H-inden-5-yl)propanoic acid] | 3 to 5 | –
17 | 10 to 30 | CC[C@@H]1CN(Cc2cc(C(CC(=O)O)c3cc(OC(F)(F)F)c4c(nnn4C)c3C)cc3ccsc23)S(=O)(=O)c2cc(Cl)cnc2O1 (stereo partly drawn) [Example 54, 3-(7-{[(4R)-8-Chloro-4-ethyl-1,1-dioxido-3,4-dihydro-2H-pyrido[2,3-b][1,4,5]oxathiazepin-2-yl]methyl}-1-benzothiophen-5-yl)-3-[1,4-dimethyl-7-(trifluoromethoxy)-1H-benzotriazol-5-yl]propanoic acid] | > 5 | –
